Test results reported in US10253052B2, “HBED-bisphosphonates, radiometal conjugates and their use as theranostic agents” (Five Eleven Pharma Inc., priority 2015, dated 2019).
“And” between values parts separate entries of the source, which are not always exact repeats. Equal entries are not always repeated. “Also recorded” adds a separate entry of the source.

Columns and labels:
[1] = In vivo biodistribution in mice; parameters: species or system normal CD-1 male mice; settings: for bone to blood ratio / bone to muscle ratio / Biodistribution: Blood / Biodistribution: Bone / Biodistribution: Brain / Biodistribution: Heart / Biodistribution: Kidney / Biodistribution: Liver / Biodistribution: Lung / Biodistribution: Muscle / Biodistribution: Pancreas / Biodistribution: Skin / Biodistribution: Spleen: iv
Description: Biodistribution experiments were performed by intravenously administering ^68Ga labeled 1a-h, 2, 3, BPAMD, and [^18F]NaF into normal, healthy male CD-1 mice (25-30 g). The injection activity was 20-30 μCi/animal. […] Organs of interest were harvested, weighed, and counts of radioactivity were measured by a gamma counter. The biodistribution of each sample was calculated as a percentage of the injected dose per gram of wet tissue weight (% ID/g). Tibia and femur bones were harvested and counted as bone samples.

[2] = In vitro binding to hydroxyapatite; settings: 20 mg hydroxyapatite in saline, 10 min at room temperature
Description: Hydroxyapatite (20 mg, Sigma-Aldrich, reagent grade powder) was incubated in isotonic saline (1 mL) for 24 h. Subsequently, either ^68Ga labeled 1a-h, 2, 3, BPAMD, or [^18F]NaF (1 μCi) was added to the hydroxyapatite suspension. After vortexing for 10 seconds, the suspension was incubated for 10 min at room temperature. The samples were then centrifuged at 10,000 rpm for 3 min and the supernatant was removed. The hydroxyapatite fraction was washed twice with saline (1 mL). Radioactivity in the combined supernatants and the hydroxyapatite fraction was measured using a gamma counter. The proportion of the ^68Ga complex binding to hydroxyapatite was determined as percent of ^68Ga absorbed to hydroxyapatite.

O=C([O-])CN(CCN(CC(=O)[O-])Cc1cc(CCC(=O)NC(P(=O)(O)O)P(=O)(O)O)ccc1[O-])Cc1cc(CCC(=O)NC(P(=O)(O)O)P(=O)(O)O)ccc1[O-].[68Ga+3] [[^68Ga]2]
bone to blood ratio ([1]; 2 min): 1.1 | bone to muscle ratio ([1]; 2 min): 4.9 | Biodistribution: Blood ([1]; 2 min post injection): 9.97 ± 1.40 % dose/g | Biodistribution: Bone ([1]; 2 min post injection): 11.0 ± 1.95 % dose/g | Biodistribution: Brain ([1]; 2 min post injection): 0.30 ± 0.02 % dose/g | Biodistribution: Heart ([1]; 2 min post injection): 4.13 ± 0.30 % dose/g | Biodistribution: Kidney ([1]; 2 min post injection): 19.4 ± 1.38 % dose/g | Biodistribution: Liver ([1]; 2 min post injection): 2.67 ± 0.12 % dose/g | Biodistribution: Lung ([1]; 2 min post injection): 5.47 ± 0.57 % dose/g | Biodistribution: Muscle ([1]; 2 min post injection): 2.26 ± 0.34 % dose/g | Biodistribution: Pancreas ([1]; 2 min post injection): 2.05 ± 0.23 % dose/g | Biodistribution: Skin ([1]; 2 min post injection): 3.19 ± 0.45 % dose/g | Biodistribution: Spleen ([1]; 2 min post injection): 2.08 ± 0.22 % dose/g | bone to blood ratio ([1]; 30 min): 26 | bone to muscle ratio ([1]; 30 min): 58 | Biodistribution: Blood ([1]; 30 min (0.5 hr) post injection): 0.73 ± 0.28 % dose/g | Biodistribution: Bone ([1]; 30 min (0.5 hr) post injection): 18.8 ± 2.82 % dose/g | Biodistribution: Brain ([1]; 30 min (0.5 hr) post injection): 0.03 ± 0.00 % dose/g | Biodistribution: Heart ([1]; 30 min (0.5 hr) post injection): 0.99 ± 0.13 % dose/g | Biodistribution: Kidney ([1]; 30 min (0.5 hr) post injection): 2.98 ± 1.13 % dose/g | Biodistribution: Liver ([1]; 30 min (0.5 hr) post injection): 0.44 ± 0.09 % dose/g | Biodistribution: Lung ([1]; 30 min (0.5 hr) post injection): 0.96 ± 0.23 % dose/g | Biodistribution: Muscle ([1]; 30 min (0.5 hr) post injection): 0.32 ± 0.05 % dose/g | Biodistribution: Pancreas ([1]; 30 min (0.5 hr) post injection): 0.36 ± 0.17 % dose/g | Biodistribution: Skin ([1]; 30 min (0.5 hr) post injection): 0.71 ± 0.13 % dose/g | Biodistribution: Spleen ([1]; 30 min (0.5 hr) post injection): 0.48 ± 0.09 % dose/g | bone to blood ratio ([1]; 60 min): 42 | bone to muscle ratio ([1]; 60 min): 82.7 and 83 | Biodistribution: Blood ([1]; 60 min (1 hr) post injection): 0.47 ± 0.08 % dose/g | Biodistribution: Bone ([1]; 60 min (1 hr) post injection): 19.7±4.2 % dose/g and 19.7 ± 4.17 % dose/g | Biodistribution: Brain ([1]; 60 min (1 hr) post injection): 0.02 ± 0.00 % dose/g | Biodistribution: Heart ([1]; 60 min (1 hr) post injection): 0.57 ± 0.13 % dose/g | Biodistribution: Kidney ([1]; 60 min (1 hr) post injection): 2.61 ± 0.95 % dose/g | Biodistribution: Liver ([1]; 60 min (1 hr) post injection): 0.43 ± 0.03 % dose/g | Biodistribution: Lung ([1]; 60 min (1 hr) post injection): 0.58 ± 0.09 % dose/g | Biodistribution: Muscle ([1]; 60 min (1 hr) post injection): 0.24 ± 0.04 % dose/g | Biodistribution: Pancreas ([1]; 60 min (1 hr) post injection): 0.27 ± 0.01 % dose/g | Biodistribution: Skin ([1]; 60 min (1 hr) post injection): 0.38 ± 0.05 % dose/g | Biodistribution: Spleen ([1]; 60 min (1 hr) post injection): 0.43 ± 0.05 % dose/g | bone to blood ratio ([1]; 120 min): 77 | bone to muscle ratio ([1]; 120 min): 103 | Biodistribution: Blood ([1]; 120 min post injection): 0.31 ± 0.09 % dose/g | Biodistribution: Bone ([1]; 120 min post injection): 23.9 ± 5.54 % dose/g | Biodistribution: Brain ([1]; 120 min post injection): 0.02 ± 0.00 % dose/g | Biodistribution: Heart ([1]; 120 min post injection): 0.42 ± 0.08 % dose/g | Biodistribution: Kidney ([1]; 120 min post injection): 2.86 ± 1.16 % dose/g | Biodistribution: Liver ([1]; 120 min post injection): 0.40 ± 0.03 % dose/g | Biodistribution: Lung ([1]; 120 min post injection): 0.40 ± 0.05 % dose/g | Biodistribution: Muscle ([1]; 120 min post injection): 0.23 ± 0.05 % dose/g | Biodistribution: Pancreas ([1]; 120 min post injection): 0.31 ± 0.11 % dose/g | Biodistribution: Skin ([1]; 120 min post injection): 0.33 ± 0.06 % dose/g | Biodistribution: Spleen ([1]; 120 min post injection): 0.43 ± 0.24 % dose/g | Biodistribution result in words (organ uptake, retention, excretion) ([1]; normal mice after iv injection): excellent bone uptake and fast kidney excretion; also recorded: excellent bone uptake and retention | Hydroxyapatite Binding (%) [2]: 90.8 ± 1.5%

C[C@H](NC(=O)CCc1ccc([O-])c(CN(CCN(CC(=O)[O-])Cc2cc(CCC(=O)NC(P(=O)(O)O)P(=O)(O)O)ccc2[O-])CC(=O)[O-])c1)C(=O)O.[68Ga+3] [[^68Ga]1d]
bone to blood ratio ([1]; 2 min): 1.1 | bone to muscle ratio ([1]; 2 min): 5.9 | Biodistribution: Blood ([1]; 2 min post injection): 9.08 ± 0.58 % dose/g | Biodistribution: Bone ([1]; 2 min post injection): 10.1 ± 2.05 % dose/g | Biodistribution: Brain ([1]; 2 min post injection): 0.29 ± 0.05 % dose/g | Biodistribution: Heart ([1]; 2 min post injection): 2.99 ± 0.26 % dose/g | Biodistribution: Kidney ([1]; 2 min post injection): 25.3 ± 3.89 % dose/g | Biodistribution: Liver ([1]; 2 min post injection): 1.89 ± 0.16 % dose/g | Biodistribution: Lung ([1]; 2 min post injection): 4.83 ± 0.25 % dose/g | Biodistribution: Muscle ([1]; 2 min post injection): 1.72 ± 0.15 % dose/g | Biodistribution: Pancreas ([1]; 2 min post injection): 1.53 ± 0.14 % dose/g | Biodistribution: Skin ([1]; 2 min post injection): 2.39 ± 0.13 % dose/g | Biodistribution: Spleen ([1]; 2 min post injection): 1.72 ± 0.24 % dose/g | bone to blood ratio ([1]; 30 min): 29 | bone to muscle ratio ([1]; 30 min): 64 | Biodistribution: Blood ([1]; 30 min (0.5 hr) post injection): 0.53 ± 0.13 % dose/g | Biodistribution: Bone ([1]; 30 min (0.5 hr) post injection): 15.3 ± 1.26 % dose/g | Biodistribution: Brain ([1]; 30 min (0.5 hr) post injection): 0.03 ± 0.00 % dose/g | Biodistribution: Heart ([1]; 30 min (0.5 hr) post injection): 0.26 ± 0.06 % dose/g | Biodistribution: Kidney ([1]; 30 min (0.5 hr) post injection): 2.14 ± 0.60 % dose/g | Biodistribution: Liver ([1]; 30 min (0.5 hr) post injection): 0.26 ± 0.09 % dose/g | Biodistribution: Lung ([1]; 30 min (0.5 hr) post injection): 0.45 ± 0.10 % dose/g | Biodistribution: Muscle ([1]; 30 min (0.5 hr) post injection): 0.24 ± 0.06 % dose/g | Biodistribution: Pancreas ([1]; 30 min (0.5 hr) post injection): 0.21 ± 0.12 % dose/g | Biodistribution: Skin ([1]; 30 min (0.5 hr) post injection): 0.42 ± 0.10 % dose/g | Biodistribution: Spleen ([1]; 30 min (0.5 hr) post injection): 0.21 ± 0.07 % dose/g | bone to blood ratio ([1]; 60 min): 144 | bone to muscle ratio ([1]; 60 min): 235 | Biodistribution: Blood ([1]; 60 min (1 hr) post injection): 0.10 ± 0.01 % dose/g | Biodistribution: Bone ([1]; 60 min (1 hr) post injection): 14.7 ± 0.50 % dose/g | Biodistribution: Brain ([1]; 60 min (1 hr) post injection): 0.01 ± 0.00 % dose/g | Biodistribution: Heart ([1]; 60 min (1 hr) post injection): 0.08 ± 0.01 % dose/g | Biodistribution: Kidney ([1]; 60 min (1 hr) post injection): 1.05 ± 0.17 % dose/g | Biodistribution: Liver ([1]; 60 min (1 hr) post injection): 0.12 ± 0.01 % dose/g | Biodistribution: Lung ([1]; 60 min (1 hr) post injection): 0.17 ± 0.01 % dose/g | Biodistribution: Muscle ([1]; 60 min (1 hr) post injection): 0.06 ± 0.00 % dose/g | Biodistribution: Pancreas ([1]; 60 min (1 hr) post injection): 0.06 ± 0.01 % dose/g | Biodistribution: Skin ([1]; 60 min (1 hr) post injection): 0.13 ± 0.01 % dose/g | Biodistribution: Spleen ([1]; 60 min (1 hr) post injection): 0.06 ± 0.00 % dose/g | bone to blood ratio ([1]; 120 min): 278 | bone to muscle ratio ([1]; 120 min): 417 | Biodistribution: Blood ([1]; 120 min post injection): 0.06 ± 0.02 % dose/g | Biodistribution: Bone ([1]; 120 min post injection): 17.0 ± 1.10 % dose/g | Biodistribution: Brain ([1]; 120 min post injection): 0.00 ± 0.00 % dose/g | Biodistribution: Heart ([1]; 120 min post injection): 0.06 ± 0.01 % dose/g | Biodistribution: Kidney ([1]; 120 min post injection): 0.91 ± 0.15 % dose/g | Biodistribution: Liver ([1]; 120 min post injection): 0.10 ± 0.01 % dose/g | Biodistribution: Lung ([1]; 120 min post injection): 0.09 ± 0.02 % dose/g | Biodistribution: Muscle ([1]; 120 min post injection): 0.04 ± 0.01 % dose/g | Biodistribution: Pancreas ([1]; 120 min post injection): 0.04 ± 0.01 % dose/g | Biodistribution: Skin ([1]; 120 min post injection): 0.09 ± 0.01 % dose/g | Biodistribution: Spleen ([1]; 120 min post injection): 0.05 ± 0.01 % dose/g | Hydroxyapatite Binding (%) [2]: 95.1 ± 0.5%
